Experimental data as given in article PMC2656571 (Journal of medicinal chemistry, 2008).

Key:
Assay type in all cases: cell-based
HIV-1 IIIB = assay: Inhibition of HIV-1 IIIB replication in MT-2 cells; settings: CC50 (MT-2 cells) / EC50 (p24 production)
MT-2 cells = assay: In vitro cytotoxicity on MT-2 cells; settings: human
HIV-1 = assay: HIV-1-mediated cytopathic effect; settings: data not shown
[1] = system: HIV-1-mediated cell-cell fusion; assay: HIV-1-mediated cell-cell fusion; settings: data not shown

Compound | SI (selectivity index, CC50/EC50) (HIV-1 IIIB) | CC50 at 4 days (MT-2 cells) [µM] | Inhibition of HIV-1-mediated cytopathic effect (CPE) (HIV-1) | Inhibition of HIV-1-mediated cell-cell fusion [1]
O=C(O)c1ccc(-c2noc(C(F)(F)F)n2)cc1 [Compound B10, 3-(4-Carboxyphenyl)-5-(trifluoromethyl)-1,2,4-oxadiazole] | > 16 | – | – | –
O=C(O)Cc1ccc(Cn2cccc2)cc1 [Compound A10, N-(4-Carboxymethene)benzylpyrrole] | – | > 465 | – | –
O=C(O)c1cc(-n2cccc2)ccc1O [Compound A2, N-(3-Carboxy-4-hydroxy)phenylpyrrole] | >50.99 | > 493 | – | –
Cc1ccc(C)n1Cc1ccc(C(=O)O)cc1 [Compound A19, N-(4-Carboxy)benzyl-2,5-dimethylpyrrole] | 19.20 | 299 | – | –
O=C(O)Cc1ccc(-n2cccc2)cc1 [Compound A7, N-(4-Carboxymethene)phenylpyrrole] | >1.34 | > 498 | – | –
O=C(O)c1ccc(-n2cccc2)cc1 [Compound A6, N-(4-Carboxy)phenylpyrrole] | >7.72 | > 535 | – | –
O=C(O)c1ccc(-c2noc(CCl)n2)cc1 [Compound B6, 3-(4-Carboxy)phenyl-5-chloromethyl-1,2,4-oxadiazole] | > 16 | – | – | –
Cc1ccc(C)n1-c1ccc(Cl)cc1C(=O)O [Compound A18, N-(4-Chloro-2-carboxy)phenyl-2,5-dimethylpyrrole] | >46.73 | > 400 | – | –
Cc1ccc(C)n1-c1ccc(O)c(C(=O)O)c1 [Compound A12, N-(3-Carboxy-4-hydroxy)phenyl-2,5-dimethylpyrrole] | – | – | effectively inhibited | effectively inhibited
O=C(O)c1ccc(Cn2cccc2)cc1 [Compound A9, N-(4-Carboxy)benzylpyrrole] | >7.78 | > 498 | – | –
